Laboratory results: PubChem BioAssay AID300 (DTP/NCI, 2004)
Records with an inconclusive call do not appear. Rule for the calls: active = survival T/C of 150% or more; inactive = T/C below 125% in these data. *1 amine or outer side, *2 acyl side, *3 side chain or, on linkers, in order; H or OH if unused. Where a SMILES comes first, the peptide text is derived from it. Bridges are numbered along the chain shown (N, C = ends). Roman numbers before positions name the chains, in order. [ ]: non-standard residue; d: D form. Actinocin(9to1) = Cc1c2oc3c(C)ccc(C(=O)[*:1])c3nc-2c(C(=O)[*:2])c(N)c1=O; aThr = C[C@H](O)[C@H](N)C(=O)O; NMeV = CN[C@H](C(=O)O)C(C)C; Sar = CNCC(=O)O

Test system: Madison 109 lung carcinoma i.m., mice, median survival
Assay: NCI In Vivo Anticancer Drug Screen. Data for tumor model Madison 109 Lung Carcinoma (intramuscular) in unknown mice
Conditions: endpoint: median survival time, vehicle: water, higher = longer survival
Experimental: The antitumor activity of compounds was measured in mice bearing transplantable tumors. Survival or tumor size were measured and the results are expressed as the measurement made in the treated group (T) divided by the measurement made in the vehicle treated control group (C). The tumor model used in this assay is Madison 109 Lung Carcinoma (intramuscular) in unknown mice

Measured: T/C

Cc1c2oc3c(C)ccc(C(=O)N[C@@H]4C(=O)N[C@H](C(C)C)C(=O)N5CCC[C@H]5C(=O)N(C)CC(=O)N(C)[C@@H](C(C)C)C(=O)O[C@H]4C)c3nc-2c(C(=O)N[C@@H]2C(=O)N[C@H](C(C)C)C(=O)N3CCC[C@H]3C(=O)N(C)CC(=O)N(C)[C@@H](C(C)C)C(=O)O[C@H]2C)c(N)c1=O (I: [aThr][dV]P[Sar][NMeV] / II: [aThr][dV]P[Sar][NMeV]; ester I:1-I:C, II:1-II:C; linker I:N-II:N via Actinocin(9to1))
inactive: dose: 0.04 mg/kg/injection, schedule: Q02DX009 (ip) 100 % of control | dose: 0.05 mg/kg/injection, schedule: Q02DX009 (ip) 108 % of control | dose: 0.05 mg/kg/injection, schedule: Q03DX009 (ip) 110 % of control | dose: 0.05 mg/kg/injection, schedule: Q04DX009 (ip) 106 % of control | dose: 0.06 mg/kg/injection, schedule: Q02DX009 (ip) 100 % of control | dose: 0.08 mg/kg/injection, schedule: Q02DX009 (ip) 121 % of control | dose: 0.08 mg/kg/injection, schedule: Q04DX009 (ip) 110 % of control | dose: 0.1 mg/kg/injection, schedule: Q01DX001 (ip) 112 % of control | dose: 0.2 mg/kg/injection, schedule: Q01DX001 (ip) 110 % of control | dose: 0.4 mg/kg/injection, schedule: Q01DX001 (ip) 110 % of control

Nc1n[nH]c(N)n1
inactive: dose: 300.0 mg/kg/injection, schedule: Q01DX009 (ip) 118 % of control | dose: 500.0 mg/kg/injection, schedule: Q01DX009 (ip) 118 % of control | dose: 600.0 mg/kg/injection, schedule: Q01DX009 (ip) 100 % of control

COc1ccc(C[C@H](N)C(=O)NC2C(CO)OC(n3cnc4c(N(C)C)ncnc43)C2O)cc1 (some centres not stated)
inactive: dose: 10.0 mg/kg/injection, schedule: Q01DX009 (ip) 104 % of control | dose: 20.0 mg/kg/injection, schedule: Q01DX009 (ip) 105 % of control | dose: 40.0 mg/kg/injection, schedule: Q01DX009 (ip) 104 % of control | dose: 80.0 mg/kg/injection, schedule: Q01DX009 (ip) 105 % of control
